According to patent US9856279B2 (AGIOS PHARMACEUTICALS, INC, priority 2011, dated 2018):
pIC50: −log10 of the molar value.

How the values were obtained:
U87MG cells = test: Cellular assay for IDH1m inhibitors: inhibition of 2-HG production (LC-MS, 48 hours) in U87MG cells; format: cell-based; settings: Homo sapiens, U-87 MG, inhibition of 2-HG production, U87R132H cells; read-out: U87R132H IC50
Method in brief: (§1)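 Read-out: 2-HG in culture medium by LC-MS after 48 h compound exposure; IC50 = 50% reduction vs DMSO control. Cells plated 5000/well in DMEM/10% FBS, 37 °C, 5% CO2; DMSO 0.2% final.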

HT1080 cells = test: Cellular assay for IDH1m inhibitors: inhibition of 2-HG production (LC-MS, 48 hours) in HT1080 cells; format: cell-based; settings: Homo sapiens, HT-1080; inhibition of 2-HG production, HT1080 cells; read-out: HT1080 IC50
Method in brief: as §1

IDH1 R132H = IDH1 R132H (Homo sapiens, UniProt O75874, R132H); test: Assay for IDH1 R132H inhibitors (NADPH/aKG, resazurin detection); format: biochemical; settings: enzyme assay of Example 12; read-out: IDH1R132H IC50
Method in brief: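 Read-out is resorufin fluorescence (Ex544/Em590) 5 min after adding a 30 μM resazurin detection mix. Before that, mutant enzyme (0.2 μg/ml in its mix) ran 50 min at room temperature with compound, 8 uM NADPH and 2 mM aKG (mix levels) in Tris pH 7.5 with NaCl, MgCl2, BSA.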

Sequence of IDH1 R132H (O75874 whole entry R132H): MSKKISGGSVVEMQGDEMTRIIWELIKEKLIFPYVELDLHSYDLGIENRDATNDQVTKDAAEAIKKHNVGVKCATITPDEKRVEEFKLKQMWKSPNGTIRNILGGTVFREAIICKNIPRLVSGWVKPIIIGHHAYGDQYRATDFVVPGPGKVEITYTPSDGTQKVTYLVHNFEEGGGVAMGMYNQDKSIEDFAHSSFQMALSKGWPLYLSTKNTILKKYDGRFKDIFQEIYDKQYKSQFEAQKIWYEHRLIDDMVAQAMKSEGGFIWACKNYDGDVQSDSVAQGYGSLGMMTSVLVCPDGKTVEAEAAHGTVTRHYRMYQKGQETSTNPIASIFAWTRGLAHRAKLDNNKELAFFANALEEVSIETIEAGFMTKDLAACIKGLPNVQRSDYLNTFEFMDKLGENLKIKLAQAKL

pIC50 (U87MG cells)	pIC50 (HT1080 cells)	pIC50 (IDH1 R132H)	SMILES
6.00 to 6.30	5.00 to 6.00	> 6.30	COCCC(=O)N1CCN(c2nc(C3CC3)c(-c3ccc(S(N)(=O)=O)cc3)c(C)c2C#N)C[C@H]1C [Compound 393, (R)-4-{5-cyano-2-cyclopropyl-6-[4-(3-methoxy-propionyl)-3-methyl-piperazin-1-yl]-4-methyl-pyridin-3-yl}-benzenesulfonamide]
> 6.30	> 6.30	> 6.30	C=Cc1cc(-c2cc(C#N)c(N3CCN(C(=O)CCOC)[C@H](C4CC4)C3)nc2C2CC2)cnn1 [Compound 674, (R)-6-cyclopropyl-2-(3-cyclopropyl-4-(3-methoxypropanoyl)piperazin-1-yl)-5-(6-vinylpyridazin-4-yl)nicotinonitrile]
